Results: US11186589B2, “Cyanoindoline derivatives as NIK inhibitors” (Janssen Pharmaceutica NV, priority 2016, dated 2021)
Like-named read-outs stand apart in the source and are kept apart here.

Experiments:
[1] = test system: P-IKKα levels in L363 cells; experiment: Effect of compounds on P-IKKα levels in L363 (NIK translocated multiple myeloma) cells; format: cell-based, human; settings: 2 hr treatment, averaged values, read-out: Inhibition of pIKKα_L-363 (IC50 (nM))
Procedure: Effect of Compounds on P-IKKα Levels in L363 (NIK Translocated Multiple Myeloma) Cells
All compounds tested were dissolved in DMSO and further dilutions were made in culture medium. Final DMSO concentration was 1% (v/v) in cell assays. The human L363 cells (ATCC) were cultured in RPMI 1640 medium supplemented with GlutaMax and 10% fetal calf serum (PAA). Cells were routinely maintained at densities of 0.2×10^6 cells per ml—1×10^6 cells per ml at 37° C. in a humidified 5% CO2 atmosphere. Cells were passaged twice a week splitting back to obtain the low density. Cells were seeded in 96 well plates (Nunc 167008) at 2×10^6 per ml media in a volume of 75 μl per well plus 25 μl 1 μg/ml recombinant human B-cell activating factor (BAFF/BLyS/TNFSF13B). Seeded cells were incubated at 37° C. in a humidified 5% CO2 atmosphere for 24 hr. Drugs and/or solvents were added (20 μl) to a final volume of 120 μl. Following 2 hr treatment plates were removed from the incubator and cell lysis was achieved by the addition of 30 μl 5× lysis buffer followed by shaking on a plate shaker at 4° C. for 10 min. At the end of this incubation lysed cells were centrifuged at 800×g for 20 min at 4° C. and the lysate was assessed for P-IKKα levels by sandwich immuno-assay carried out in anti-rabbit antibody coated Mesoscale plates. Within an experiment, the results for each treatment were the mean of 2 replicate wells. For initial screening purposes, compounds were tested using an 8 point dilution curve (serial 1:3 dilutions). For each experiment, controls (containing MG132 and BAFF but no test drug) and a blank incubation (containing MG132 and BAFF and 10 μM ADS125117, a test concentration known to give full inhibition) were run in parallel. The blank incubation value was subtracted from all control and sample values. To determine the IC50 a sigmoidal curve was fitted to the plot of % inhibition of control P-IKKα levels versus Log10 compound concentration.

NIK/MAP3K14 = NIK/MAP3K14 (Homo sapiens (Human), UniProt Q99558); experiment: Inhibition of auto-phosphorylation of recombinant human NF-kappaB-inducing kinase (NIK/MAP3K14) activity (AlphaScreen); format: biochemical; settings: averaged values over all measurements on all batches, 25 microM ATP
NIK/MAP3K14, sequence (Q99558 whole entry): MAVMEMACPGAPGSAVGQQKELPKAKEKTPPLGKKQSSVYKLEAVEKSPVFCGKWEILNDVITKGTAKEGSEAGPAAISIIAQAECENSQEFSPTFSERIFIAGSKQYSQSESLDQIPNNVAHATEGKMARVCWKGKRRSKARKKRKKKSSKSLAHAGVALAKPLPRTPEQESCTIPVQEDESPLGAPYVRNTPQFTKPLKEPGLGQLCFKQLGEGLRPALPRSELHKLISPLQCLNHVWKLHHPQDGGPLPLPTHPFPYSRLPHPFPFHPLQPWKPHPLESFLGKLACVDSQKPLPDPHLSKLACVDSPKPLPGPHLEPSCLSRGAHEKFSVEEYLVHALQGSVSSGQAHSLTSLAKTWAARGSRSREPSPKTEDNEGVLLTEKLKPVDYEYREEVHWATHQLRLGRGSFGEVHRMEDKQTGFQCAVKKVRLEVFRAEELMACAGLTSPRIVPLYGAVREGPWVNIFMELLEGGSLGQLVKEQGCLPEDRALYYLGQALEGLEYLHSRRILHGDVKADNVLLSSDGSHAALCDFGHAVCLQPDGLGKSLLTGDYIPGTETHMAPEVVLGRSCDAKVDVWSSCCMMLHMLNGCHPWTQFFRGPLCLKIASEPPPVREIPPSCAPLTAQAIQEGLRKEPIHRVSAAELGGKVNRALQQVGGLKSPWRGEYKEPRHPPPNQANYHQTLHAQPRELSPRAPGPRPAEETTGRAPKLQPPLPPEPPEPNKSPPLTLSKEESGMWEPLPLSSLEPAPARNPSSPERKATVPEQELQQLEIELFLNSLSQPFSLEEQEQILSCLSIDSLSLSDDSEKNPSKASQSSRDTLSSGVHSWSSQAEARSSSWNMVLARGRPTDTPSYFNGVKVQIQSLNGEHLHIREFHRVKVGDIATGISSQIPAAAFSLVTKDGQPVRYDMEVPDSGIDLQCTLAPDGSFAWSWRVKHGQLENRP
Procedure: Inhibition of Auto-Phosphorylation of Recombinant Human NF-kappaB-Inducing Kinase ([…]) Activity (AlphaScreen®)
NIK/MAP3K14 auto-phosphorylation activity was measured using the AlphaScreen® (αscreen) format (Perkin Elmer). All compounds tested were dissolved in dimethyl sulfoxide (DMSO) and further dilutions were made in assay buffer. Final DMSO concentration was […] in assays. Assay buffer was 50 mM Tris pH 7.5 containing 1 mM EGTA (ethylene glycol tetraacetic acid), 1 mM DTT (dithiothreitol), 0.1 mM Na3VO4, 5 mM MgCl2, 0.01% Tween® 20. Assays were carried out in 384 well Alphaplates (Perkin Elmer). Incubations consisted of compound, 25 microM Adenosine-5′-triphosphate (ATP), and 0.2 nM NIK/MAP3K14. Incubations were initiated by addition of GST-tagged NIK/MAP3K14 enzyme, carried out for 1 h at 25° C. and terminated by addition of stop buffer containing anti-phospho-[…] Ser176/180 antibody. Protein A Acceptor and Glutathione-Donor beads were added before reading using an EnVision® Multilabel Plate Reader (Perkin Elmer). Signal obtained in the wells containing blank samples was subtracted from all other wells and IC50's were determined by fitting a sigmoidal curve to % inhibition of control versus Log10 compound concentration.

KMS12-BM cells = experiment: Antiproliferative activity on KMS12-BM (NIK WT) multiple myeloma cells (CellTiter-Glo); format: cell-based, human; settings: 96 hr treatment, averaged values, read-out: KMS-12 Proliferation inhibition (IC50 (nM))
Procedure: (§1) Determination of Antiproliferative Activity on JJN-3 (NIK Translocated) and KMS12-BM (NIK WT) Multiple Myeloma Cells
(§2) All compounds tested were dissolved in DMSO and further dilutions were made in culture medium. Final DMSO concentration was 0.3% (v/v) in cell proliferation assays. Viability was assessed using CellTiter-Glo cell viability assay kit (Promega). The human JJN-3 and KMS12-BM cells (DSMZ) were cultured in RPMI 1640 medium supplemented with 2 mM L-glutamine, and 10% fetal calf serum (PAA). Cells were routinely kept as suspension cells at 37° C. in a humidified 5% CO2 atmosphere. Cells were passaged at a seeding density of 0.2×10^6/ml twice a week. Cells were seeded in black tissue culture treated 96-well plates (Perkin Elmer). Densities used for plating ranged from 15000 (JJN3) to 20000 (KMS12BM) cells per well in a total volume of […]. Drugs and/or solvents were added (15 μl) to a final volume of 150 μl. Following 96 hr of treatment, plates were removed from the incubator and allowed to equilibrate to room temperature for approx 10 min. 75 μl CellTiter-Glo reagent was added to each well that was then covered (Perkin Elmer Topseal) and shaken on plate shaker for 10 min. Luminescence was measured on a HTS Topcount (Perkin Elmer). Within an experiment, the results for each treatment were the mean of 2 replicate wells. For initial screening purposes, compounds were tested using a 9 point dilution curve (serial 1:3 dilutions). For each experiment, controls (containing no drug) and a blank incubation (containing cells read at the time of compound addition) were run in parallel. The blank value was subtracted from all control and sample values. For each sample, the mean value for cell growth (in relative light units) was expressed as a percentage of the mean value for cell growth of the control.

JJN-3 cells = experiment: Antiproliferative activity on JJN-3 (NIK translocated) multiple myeloma cells (CellTiter-Glo); format: cell-based, human; settings: JJN-3 (NIK translocated) cells, 96 hr treatment, averaged values, read-out: JJN-3 Proliferation inhibition (IC50 (nM))
Procedure: as §1, §2

Structure (SMILES) | IC50 ([1]; Homo sapiens, L-363, 2 h) | IC50 (NIK/MAP3K14) | IC50 (KMS12-BM cells; Homo sapiens, KMS-12-BM, 96 h) | IC50 (JJN-3 cells; Homo sapiens, JJN-3, 96 h) | IC50 [1] | IC50 (KMS12-BM cells) | IC50 (JJN-3 cells)
CN1CCc2ccc(Nc3nccc(-c4cc(C#N)c5c(c4)[C@@](C)(CO)CN5)n3)cc2C1 [Compound 31] | 2 nM | 1.4 nM | ~31 nM | 4 nM |  |  | 
CC1CC(C)n2ncc(Nc3nccc(-c4cc(C#N)c5c(c4)C(C)(CO)CN5)n3)c2O1 (racemic) [Compound 21b] |  | 5.9 nM | 2510 nM | 269 nM | 5 nM |  | 
CC1(CO)COc2c(Nc3nccc(-c4cc(C#N)c5c(c4)[C@@](C)(CO)CN5)n3)cnn2C1 (mixture of isomers) [Compound 31b] | 63 nM | 5 nM | ~7760 nM | ~2140 nM |  |  | 
CN(C)C1COc2c(cc(Cl)cc2Nc2nccc(-c3cc(C#N)c4c(c3)[C@@](C)(CO)CN4)n2)C1 (some centres unmarked) [Compound 18] | 16 nM | 4.1 nM |  |  |  | 9 nM | 1 nM
C[C@]1(CO)CNc2c(C#N)cc(-c3ccnc(Nc4cc5c(n(CCC6CC6)c4=O)CCOC5)n3)cc21 [Compound 58] | 204 nM | 35.5 nM | > 10000 nM | 2400 nM |  |  | 
CC1CCCn2ncc(Nc3nccc(-c4cc(C#N)c5c(c4)[C@@](C)(CO)CN5)n3)c2O1 (single isomer, unassigned) [Compound 30b] |  | 5.2 nM |  |  | 13 nM | > 10000 nM | 263 nM
Cc1nc2c(cc1Nc1nccc(-c3cc(C#N)c4c(c3)[C@@](C)(CO)CN4)n1)COCC2 [Compound 28] | 14 nM | 1.1 nM | > 10000 nM | 851 nM |  |  | 
COc1nc2c(cc1Nc1nccc(-c3cc(C#N)c4c(c3)[C@@](C)(CO)CN4)n1)CN(C)CC2 [Compound 32] | 10 nM | 1.7 nM | 525 nM | 195 nM |  |  | 
CC(C)(O)Cn1ccc2c(Nc3nccc(-c4cc(C#N)c5c(c4)C(C)(C)CN5)n3)cc(Cl)cc21 [Compound 2c] | 78 nM | 87.1 nM | ~6030 nM | 123 nM |  |  | 
CC1CCn2ncc(Nc3nccc(-c4cc(C#N)c5c(c4)[C@@](C)(CO)CN5)n3)c2O1 (single isomer, unassigned) [Compound 2b] |  | 2 nM |  |  | 4 nM | > 10000 nM | 93 nM
CC(C)C1CCn2ncc(Nc3nccc(-c4cc(C#N)c5c(c4)[C@@](C)(CO)CN5)n3)c2O1 (single isomer, unassigned) [Compound 22b] | 3 nM | 7.1 nM |  |  |  | > 10000 nM | 166 nM
CCc1c(Nc2nccc(-c3cc(C#N)c4c(c3)[C@@](C)(CO)CN4)n2)ccc2c1CCN(C(C)CO)C2 (some centres unmarked) [Compound 60] | 17 nM | 4.8 nM | 603 nM | 100 nM |  |  | 
Cc1cc2c(cc1Nc1nccc(-c3cc(C#N)c4c(c3)[C@@](C)(CO)CN4)n1)CCN(C)CC2 [Compound 23] | ~79 nM | 4.8 nM | ~550 nM | 162 nM |  |  | 
CN1CCc2cc(CCC3CC3)c(Nc3nccc(-c4cc(C#N)c5c(c4)[C@@](C)(CO)CN5)n3)cc2CC1 (mixture of isomers) [Compound 26] | 501 nM | 5.1 nM | ~525 nM | 692 nM |  |  | 
CN1CCn2ncc(Nc3nccc(-c4cc(C#N)c5c(c4)[C@@](C)(CO)CN5)n3)c2C1 [Compound 15b] | 11 nM | 3.5 nM | ~4470 nM | 200 nM |  |  | 
CN1CCn2ncc(Nc3nccc(-c4cc(C#N)c5c(c4)[C@@](C)(CO)CN5)n3)c2C1=O [Compound 3b] | 3 nM | 1 nM | > 10000 nM | 91 nM |  |  | 
CC1CCn2ncc(Nc3nccc(-c4cc(C#N)c5c(c4)[C@@](C)(CO)CN5)n3)c2O1 (single isomer, unassigned) [Compound 1b] | 2 nM | 2.8 nM |  | 58 nM |  | ~2820 nM | 
CN1CCc2ncc(Nc3nccc(-c4cc(C#N)c5c(c4)[C@@](C)(CO)CN5)n3)cc2C1 [Compound 29] | 16 nM | 3.4 nM | 51 nM | ~27 nM |  |  | 
CC(C)Oc1nc2c(cc1Nc1nccc(-c3cc(C#N)c4c(c3)[C@@](C)(CO)CN4)n1)COCC2 [Compound 46] | 20 nM | 13 nM | > 10000 nM | 778 nM |  |  | 
CC(C)N1CCCn2ncc(Nc3nccc(-c4cc(C#N)c5c(c4)[C@@](C)(CO)CN5)n3)c2C1=O [Compound 28b] | 251 nM | 17 nM | > 10000 nM | 3390 nM |  |  | 
CC(C)N1CCn2ncc(Nc3nccc(-c4cc(C#N)c5c(c4)[C@@](C)(CO)CN5)n3)c2C1 [Compound 18b] | 7 nM | 6.2 nM | ~5500 nM | 288 nM |  |  | 
CC(C)C1CCn2ncc(Nc3nccc(-c4cc(C#N)c5c(c4)[C@@](C)(CO)CN5)n3)c2O1 (single isomer, unassigned) [Compound 23b] |  | 6.9 nM |  |  | 2 nM | ~2240 nM | 45 nM
CC(C)CN1CCn2ncc(Nc3nccc(-c4cc(C#N)c5c(c4)[C@@](C)(CO)CN5)n3)c2C1=O [Compound 27b] | 13 nM | 4.47 nM | > 10000 nM | 1580 nM |  |  | 
CC1(C)CCn2ncc(Nc3nccc(-c4cc(C#N)c5c(c4)[C@@](C)(CO)CN5)n3)c2O1 [Compound 25b] | 7 nM | 8.1 nM | > 10000 nM | 3020 nM |  |  | 
C[C@]1(CO)CNc2c(C#N)cc(-c3ccnc(Nc4cc5c(nc4CCC4CC4)CCOC5)n3)cc21 [Compound 21] | 21 nM | 3 nM | 3890 nM | 81 nM |  |  | 
CN1CCc2cc(Nc3nccc(-c4cc(C#N)c5c(c4)[C@@](C)(CO)CN5)n3)ccc2C1 [Compound 30] | 2 nM | 0.8 nM | 10 nM | 4 nM |  |  | 
